Laboratory results published in patent publication US20110082204A1, “N-alkylcarbonyl-amino acid ester and N-alkylcarbonyl-amino lactone compounds and their use” (priority 2006, published 2011).

Experiments:
philtrum skin = assay: Cooling sensation after ointment applied to philtrum skin; format: in vivo, human; conditions: for duration of cooling (FIG. 1): 40 to 70 mg of 1% wt/vol (10 mg/ml) ointment on skin above the upper lips; for Duration of cooling, Philtrum Skin: 5 mg/ml in Aquaphor ointment on philtrum skin
Source text: A reliable place for topical application is the skin above the upper lip (above the vermilion border of the lips), on the philtrum, lateral to the philtrum until the nasolabial folds, and on the lower nostrils (subnasale). This part of the face is known to be densely innervated with cold receptors, second only to the surfaces of the eyeball and anogenitalia.
The intensity of the subjective skin sensation is rated as 0, 1, 2 or 3 with: 0 as no change; 1 as slight coolness, cold, or tingling; 2 as clear-cut signal of coolness, cold, or tingling; and 3 as robust cooling or cold. The intervals for recording sensations are 5 to 10 minutes, until two successive zeroes are obtained. The results (shown in FIG. 1) are averaged values of 4 to 6 separate trials in the same individual. The data are plotted using SigmaPlot® (Systat Software, Point Richmond Calif.) and a smoothing function with a negative exponential was used for analysis and statistical fit of the results. Confirmatory trials of cooling action of the long-acting NACE compounds were obtained in 2 to 4 individuals but not quantified for some because of the large number of chemicals that were evaluated
(§1) The onset of drug action is taken as the time to reach 2 units of coolness intensity, and offset of drug action is the time when coolness intensity drops below 2, after previously surpassing 2 units. The duration of cooling action is defined as the offset time minus the onset time. […] The quality of the sensation is noted, for example, as pure refreshing coolness, or if the sensation is accompanied by irritation (stinging or burning). The quality of the sensation is not rated for intensity.
For bioassay on the skin, approximately 30 mg was stirred and dissolved in 3 g of warm liquid Aquaphor® ointment to a yield 5 to 10 mg/ml (0.5% to 1.0 wt/vol) ointment. After cooling, 40 to 70 mg of the solid ointment was placed on the tip of a plastic stick and applied to the skin above the upper lip, on the philtrum, and lateral to the philtrum, up to the nasolabial folds, of test subjects and the onset and duration of cooling sensations noted.
The intensity of the subjective skin sensation was rated as 0, 1, 2 or 3 with: 0 as no change; 1 as slight coolness, cold, or tingling; 2 as clear signal of coolness, cold, or tingling; and 3 as robust cooling or cold. The intervals for recording sensations were 5 to 10 minutes, until two successive zeroes were obtained. The results (shown in FIG. 1) are averaged values of 4 to 6 separate trials in the same individual. The data are plotted using SigmaPlot® (Systat Software, Point Richmond, Calif., USA) and a smoothing function with a negative exponential was used for analysis and statistical fit of the results.
as §1, with “was” for “is”, “was also noted: such” for “is noted, for example,”
For the results in FIG. 1, the test compounds were singly applied to the skin above the upper lips at a 40 to 70 mg dose of a 1% wt/vol (10 mg/ml) ointment. Subsequently, for the results shown in Table 3, the test dose on the philtrum was reduced to a 0.5% wt/vol (5 mg/ml) ointment. The reason for choosing a lower dose was to increase the number of trials per individual and to have a reduced chance of substances accumulating in the skin.

eyelids/ocular surface = assay: Cooling after wiping closed eyelids with a towelette; format: in vivo, human; conditions: for Duration of cooling, Eyelids/Ocular Surface: eye wipes, 1 mg/ml in 5%-95% v/v ethanol-distilled water
Method: A second method of testing was to take a towelette saturated with a test solution of the cooling agent and to wipe the towelette over the dosed eyelids. The presence or absence of cooling (or irritanty, if applicable) sensations was then recorded at 10 minute intervals until the cessation of coolness in two successive intervals.
(§2) For testing of cooling compounds delivered to the eyelids with a towelette, the following procedures were used in the experiments of Table 3 and in Study 5 and 6. Three ml of liquid suspension or solution in distilled water was added to a 0.4 g cotton rectangle (50 mm×60 mm) (CS-being, Daisan Cotton, Japan) and individually sealed with a vaccuum apparatus (Foodsaver®, Jarden Corp.). Samples were stored in the freezer or refrigerator and thawed to room temperature before use. Wiping with the cotton pad delivers 40 to 45 μl of liquid composition to the eyelids ([…] to 22 μl per eye). So, if the concentration of the test substance was 1 mg/ml, the dose delivered to both eyes is a total of ˜40 to […], or ˜20 μg per eye. This method allows a reliable delivery of test substances because the dissolved or suspended particles in solution are evenly dispersed on the cotton pad in an excess volume of liquid. The presence or absence of cooling sensations was noted as being present or absent at 5 to 10 min intervals until no coolness was noticeable in two successive test intervals. Only the duration of cooling on the ocular surface was recorded, without an attempt to quantify the intensity of the sensation.

[1] = test system: dorsal surface of the tongue; assay: Tongue cooling threshold, impregnated filter paper (Watson et al.); format: in vivo, human; conditions: summary comparison
Method: Watson et al. (U.S. Pat. No. 4,178,459) tested the properties of N-substituted p-menthane carboxamides. However, the branched chain alkylesters such as the isopropyl analogs described here in the Gly and D-Ala configuration of Formula 1 were never synthesized by Watson et al. Bioactivity of the Watson et at compounds were tested by putting filter paper (1×1 cm), impregnated with a known amount of compound, onto the dorsal surface of the tongue of the volunteer test subject. After 30 seconds, the subject was required to report presence or absence of a cooling effect. […] The average threshold of (−)-menthol for 6 subjects was 0.25 μg, but there was a 100-fold variation in individual sensitivity. The potencies of coolness signals detected from the dorsal surface of the tongue are not correlated to skin sensations of coolness may be confounded by gustatory, olfactory, and other variables, as well as by dilution from saliva.

periorbital skin = assay: Ointment applied to periorbital skin: coolness, eye irritancy, alerting (Study 3); format: in vivo, human
Source text: The ointment was also applied to the periorbital skin (upper and lower eyelids and on skin adjacent to the lateral canthus) for tests of irritancy near the eyes, and the subject is asked if irritation is present or absent. The intensity of the eye sensation is not rated.
For tests of irritancy near the eyes in Study 3 and 4, the ointment was applied to the periorbital skin (upper and lower eyelids and on skin adjacent to the lateral canthus), and the subject asked if irritation is present or absent. The intensity of the eye sensation is not rated, but just noted as being present or absent
A 1% preparation of 2-isopropyl-5-methyl-cyclohexanecarbonyl D-alanine methyl ester in Aquaphor® ointment was applied bilaterally to the periorbital area of four individuals. […] This experiment was then repeated three days later in the evening with the same individuals whose occupations required daylong activities before a computer screen.

[2] = test system: dorsal surface of the tongue; conditions: threshold amount producing cooling on tongue of human volunteers; values from Watson US 04178459; cited from earlier work
[3] = Log P of tested compounds; format: physicochemical
sleepiness and fatigue = assay: Study 4: eye wipes against sleepiness and fatigue; format: in vivo, human; conditions: for onset and intensity of awakening effect: eye wipes, compared with the other analogs
Method: as §2
Three high-powered business executives who regularly spent long hours at the negotiating tables or at meetings felt “burnt out” by their professional activities and frequently felt tired and sleepy-eyed in the social arena. They volunteered to try eye wipes containing 1.0 mg/ml of (R)-2-[((1R,2S,5R)-2-isopropyl-5-methyl-cyclohexanecarbonyl)-amino]-propionic acid isopropyl ester (D-Ala-OiPr, No. 1, in table 1) to see if the eye wipes will refresh and awaken their interest during meetings. […] They became alert and vigilant and more pro-active in their social milieu.

face = assay: Study 2: towelette used to wipe the face in hot weather; format: in vivo, human; conditions: for duration of pleasant cooling sensations: 10% propylene glycol/90% water
Method: 2-Isopropyl-5-methyl-cyclohexanecarbonyl D-alanine methyl ester was dissolved in warm 10% propylene-glycoV90% distilled water solution to give a concentration of either 0.1 or 0.5% wt/vol (1 or 5 mg/mL). Six to seven milliliters of these solutions were then applied with a pipette onto a paper napkin (Luncheon Napkins, Kirkland Signature brand from Costco, Inc.) The napkin was 1-ply with a 30.4×29.5 cm dimension. Each napkin was then hermetically sealed in a plastic envelope (Foodsaver by Tilia). On two separate occasions involving golfing trips to Los Angeles, Calif., USA, where air temperatures exceeded […] (90° F.), these towelettes were used to wipe the face. Pleasant cooling sensations were obtained that lasted for about 10 minute for the 0.1% concentration towelette and about 60 minutes for the 0.5% towelette.

allergic conjunctivitis = assay: Study 5: eye wipes in allergic conjunctivitis; format: in vivo, human
Method: as §2
A laboratory scientist suffered from seasonal allergic conjunctivitis. This condition was severely aggravated when […] started doing experiments with laboratory animals (rats and mice) and […] became sensitized to the associated allergens. The conjunctivitis was not relieved by oral or topical eye drop antihistamines and the subject was reluctant to consider the use of anti-inflammatory steroid ointments. Upon examination, their eyes were blood-shot and watery and they kept rubbing their eyelids with their fingers even though they knew this action may further aggravate the itch and discomfort. They volunteered to try eye wipes containing 1.0 mg/ml of (R)-2-[((1 R,2S,5R)-2-isopropyl-5-methyl-cyclohexanecarbonyl)-amino]-acetic isopropyl ester (Gly-OiPr, No. 2, in table 1). The relief of itch and discomfort was obtained within 5 minutes and lasted for at least four hours.

periorbital pain = assay: Study 6: eye wipes in persistent periorbital pain; format: in vivo, human; conditions: eye wipes 1.0 mg/ml, one patient, three occasions
Method: as §2
A person suffered from “dry eyes” or keratoconjunctivitis sicca which was managed by artificial tears and eye drops containing lubricants. […]

[4] = 1% in Aquaphor ointment, periorbital area, four individuals
[5] = eye wipes 1.0 mg/ml, one subject

In the case of CC1CCC(C(C)C)C(O)C1 (single isomer, unassigned; (-)) [(−)-menthol, reference compound], the “duration of cooling (FIG. 1)” value (philtrum skin) is reported as 0.3 h, the “Cooling on skin of face” value (philtrum skin; summary comparison) is reported as “yes” and the ““perfect” cooling experience” value (philtrum skin; summary comparison) is reported as “no”. For the same molecule, the “Acts for >1 hour at 1 mg/ml” value (eyelids/ocular surface; 1 mg/ml) was “no”, the Cooling on tongue [1] was “yes” and the “Eye Irritancy” value (periorbital skin; summary comparison) was “yes”. The “Threshold tongue” value [2] was 0.25 µg.
With CCOC(=O)[C@@H](C)NC(=O)[C@@H]1C[C@H](C)CC[C@H]1C(C)C [D-Ala Et Ester, (R)-2-[((1R,2S,5R)-2-isopropyl-5-methyl-cyclohexanecarbonyl)-amino]-propionic acid ethyl ester] the “Duration of cooling, Philtrum Skin” value (philtrum skin) was 103 min, the “duration of cooling (FIG. 1)” value (philtrum skin) was 2.4 h and the “Duration of cooling, Eyelids/Ocular Surface” value (eyelids/ocular surface) was 180 min. For the same molecule, the logP [3] was 3.1 and the “onset and intensity of awakening effect” value (sleepiness and fatigue) was “faster onset and more intense awakening effect”.
For COC(=O)[C@@H](C)NC(=O)[C@@H]1C[C@H](C)CC[C@H]1C(C)C [D-Ala Me Ester, (R)-2-[((1R,2S,5R)-2-isopropyl-5-methyl-cyclohexanecarbonyl)-amino]-propionic acid methyl ester], the “Duration of cooling, Philtrum Skin” value (philtrum skin) was 77 min, the “duration of cooling (FIG. 1)” value (philtrum skin) was 1.9 h and the “Duration of cooling, Eyelids/Ocular Surface” value (eyelids/ocular surface) was 120 min. The logP [3] was 2.8, the “duration of pleasant cooling sensations” value (face; 0.1% wt/vol (1 mg/mL) towelette) was “about 10 minute” and the eye irritation (face; 0.1 or 0.5% towelette) was “No eye irritation was observed”. For the same molecule, the “duration of pleasant cooling sensations” value (face; 0.5% wt/vol (5 mg/mL) towelette) was “about 60 minutes”, the “Onset of coolness on the skin” value (periorbital skin; [4]) was 1 min and the “duration of alerting effect” value (periorbital skin; [4]) was “about one”. For the same molecule, the “duration of coolness on the skin (average)” value (periorbital skin; [4]) was 30 min, the “irritation of skin / eye surfaces” value (periorbital skin; ointment on periorbital area) was “No irritation of the eye surfaces was noted” and the “onset and intensity of awakening effect” value (sleepiness and fatigue) was “faster onset and more intense awakening effect”.
In the case of CC(C)OC(=O)[C@@H](C)NC(=O)[C@@H]1C[C@H](C)CC[C@H]1C(C)C [D-Ala iPr Ester, (R)-2-[((1R,2S,5R)-2-isopropyl-5-methyl-cyclohexanecarbonyl)-amino]-propionic acid isopropyl ester], the “Duration of cooling, Philtrum Skin” value (philtrum skin) is reported as 34 min, the “Duration of cooling, Eyelids/Ocular Surface” value (eyelids/ocular surface) is reported as 360 min and the logP [3] is reported as 3.7. For the same molecule, the “effect on sleepiness and fatigue” value (sleepiness and fatigue; eye wipes 1.0 mg/ml, three executives) was “the sense of sleepiness and fatigue was reduced for the next several hours”.
With CC(C)OC(=O)CNC(=O)[C@@H]1C[C@H](C)CC[C@H]1C(C)C [Gly iPr Ester, (R)-2-[((1R,2S,5R)-2-isopropyl-5-methyl-cyclohexanecarbonyl)-amino]-acetic acid isopropyl ester] the “Duration of cooling, Philtrum Skin” value (philtrum skin) was 27 min, the “Duration of cooling, Eyelids/Ocular Surface” value (eyelids/ocular surface) was 300 min and the logP [3] was 3.3. The “duration of relief of itch and discomfort” value (allergic conjunctivitis; [5]) was “at least four”, the “time to relief of itch and discomfort” value (allergic conjunctivitis; [5]) was no more than 5 min and the “over-all itchiness and redness” value (allergic conjunctivitis; wipes used as needed for three days) was “over-all itchiness and redness were reduced significantly”. For the same molecule, the “relief of periorbital pain” value (periorbital pain) was “immediate relief”.
